What was measured:
[1] = system: glutathione biosynthesis pathway in the liver; test: Metabolites in liver of agent-administered mice vs control mice, measured by CE-TOFMS; assay type: in vivo
Protocol: Male mice fasted overnight were anesthetized by intraperitoneal injection of pentobarbital sodium (60 mg per Kg body weight). […] The liver (about 300 mg) harvested from mice was immediately plunged into 1 ml of methanol containing internal standards and homogenized to inactivate enzymes and stop increase in metabolism Then, 500 μl of pure water was added and 300 μl of the solution was collected. 200 μl of chloroform was added to the solution, which was then thoroughly mixed. The solution was centrifuged at 15000 rpm at 4° C. for 15 minutes. After left standing, the separated 300 μl-water-methanol phase was centrifugally filtered through an ultrafiltration filter (5 kDa cutoff) to remove proteins. The filtrate was lyophilized and 50 μl of […]® ultrapure water was added thereto prior to CE-MS (CE-TOFMS) analysis. Metabolites having a mass of 1000 or less were comprehensively measured using CE-TOFMS under measuring conditions for cationic metabolites and anionic metabolites. As a capillary, a fused silica capillary having an inner diameter of 50 μm, an outer diameter of 350 μm, and a total length of 100 cm was used. As a buffer, 1 M formic acid (pH is about 1.8) was used. Measurement was performed with an applied voltage of +30 kV and a capillary temperature of 20° C. A sample was injected at 50 mbar for 3 seconds using the pressure method. In TOFMS, the positive ion mode was employed and the ionization, fragmentor, skimmer, and Oct RFV voltages were set at 4 kV, 75 V, 50 V, and 125 V, respectively. Nitrogen was used as a drying gas, which was set at a temperature of 300° C. and a pressure of 10 psig. Methanol solution (50%) was used as a sheath liquid. To this solution, reserpine (m/z 609.2807) was added at 0.5 μM for mass calibration and the solution was delivered at 10μ/min. All the obtained data were automatically calibrated using the mass of reserpine (m/z 609.2807) and methanol adduct ion (m/z 83.0703). As a capillary, SMILE(+) capillary having an inner diameter of 50 μm, an outer diameter of 350 μm, and a total length of 100 cm was used. As a buffer, 50 mM ammonium acetate (pH 8.5) was used. Measurement was performed with an applied voltage of -30 kV and a capillary temperature of 20° C. A sample was injected at 50 mbar for 30 seconds using the pressure method. In TOFMS, the negative ion mode was employed and the ionization, fragmentor, skimmer, and Oct RFV voltage were set at 3.5 kV, 100 V, 50 V, and 200 V, respectively. Nitrogen was used as a drying gas, which was set at a temperature of 300° C. and a pressure of 10 psig. Ammonium acetate (5 mM) in 50% methanol solution was used as a sheath liquid. To this solution, 20 μM PIPES and 1 μM reserpine (m/z 609.2807) was added for mass calibration and was delivered at 10μ/min. All the obtained data were automatically calibrated using the mass of reserpine (m/z 609.2807), monovalent PIPES (m/z 301.0534), and divalent PIPES (m/z 150.0230). […] The extracts were comprehensively and quantitatively analyzed with a capillary electrophoresis-mass spectrometer (CE-MS) or the like. […] Ophthalmic acid preparation was obtained and compared with the unknown substance.

serum metabolites = test: Metabolites in serum of AAP-administered mice vs control mice, measured by CE-TOFMS; assay type: in vivo
Protocol: Male mice fasted overnight were anesthetized by intraperitoneal injection of pentobarbital sodium (60 mg per Kg body weight). […] Metabolites having a mass of 1000 or less were comprehensively measured using CE-TOFMS under measuring conditions for cationic metabolites and anionic metabolites. As a capillary, a fused silica capillary having an inner diameter of 50 μm, an outer diameter of 350 μm, and a total length of 100 cm was used. As a buffer, 1 M formic acid (pH is about 1.8) was used. Measurement was performed with an applied voltage of +30 kV and a capillary temperature of 20° C. A sample was injected at 50 mbar for 3 seconds using the pressure method. In TOFMS, the positive ion mode was employed and the ionization, fragmentor, skimmer, and Oct RFV voltages were set at 4 kV, 75 V, 50 V, and 125 V, respectively. Nitrogen was used as a drying gas, which was set at a temperature of 300° C. and a pressure of 10 psig. Methanol solution (50%) was used as a sheath liquid. To this solution, reserpine (m/z 609.2807) was added at 0.5 μM for mass calibration and the solution was delivered at 10μ/min. All the obtained data were automatically calibrated using the mass of reserpine (m/z 609.2807) and methanol adduct ion (m/z 83.0703). As a capillary, SMILE(+) capillary having an inner diameter of 50 μm, an outer diameter of 350 μm, and a total length of 100 cm was used. As a buffer, 50 mM ammonium acetate (pH 8.5) was used. Measurement was performed with an applied voltage of -30 kV and a capillary temperature of 20° C. A sample was injected at 50 mbar for 30 seconds using the pressure method. In TOFMS, the negative ion mode was employed and the ionization, fragmentor, skimmer, and Oct RFV voltage were set at 3.5 kV, 100 V, 50 V, and 200 V, respectively. Nitrogen was used as a drying gas, which was set at a temperature of 300° C. and a pressure of 10 psig. Ammonium acetate (5 mM) in 50% methanol solution was used as a sheath liquid. To this solution, 20 μM PIPES and 1 μM reserpine (m/z 609.2807) was added for mass calibration and was delivered at 10μ/min. […]

[2] = 2 hours after administration, vs control mice
[3] = at 1 and 2 hours after administration (time course)
[4] = time course 1-24 hours after administration

| SMILES | GSH in liver [1, 2] | ophthalmic acid in liver [1, 2] | γ-Glu-2-aminobutyric acid (γ-Glu-2AB) in liver [1, 2] | γ-Glu-Cys in liver [1, 2] | all the substances in the glutathione biosynthesis pathway in the liver [1, 2] | oxidized glutathione (GSSG) in liver [1, 2] | GSH in liver [1, 3] | ophthalmic acid in liver [1, 3] | GSSH in liver [1, 4] | ophthalmic acid in serum (serum metabolites; [3]) | GSH in serum (serum metabolites; [4]) | GSSH in serum (serum metabolites; [4]) |
| --- | --- | --- | --- | --- | --- | --- | --- | --- | --- | --- | --- | --- |
| CCCCS(=N)(=O)CCC(N)C(=O)O (stereo not drawn) [BSO, buthionine sulfoximine] | remarkably decreased | remarkably decreased | remarkably decreased | remarkably decreased |  |  |  |  |  |  |  |  |
| CC(=O)Nc1ccc(O)cc1 [AAP, Acetaminophen] | Dramatically decreased | increase | increase |  | decrease | Dramatically decreased | rapidly decreased | dramatically increased | a behavior similar to that of GSH in liver | dramatically increased | not detected | a behavior similar to that of GSH in liver |
